{"source": "PubChem BioAssay AID2060624", "about": "(Molecular Pharmacology Branch, DTP, NCI, 2025)", "test_system": "217524-143-R1-J4-PDC spheroids with HUVEC/MSC, viability", "test": "Anticancer human tumor 217524-143-R1-J4-PDC patient-derived pancreatic carcinoma cell line growth inhibition [CLK]", "conditions": "for IC50: curve of first compound; for viability, T/C: stronger effect = lower value", "how_it_was_run": "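Patient-derived tumor cells grown as complex spheroids with HUVEC endothelial cells and mesenchymal stem cells, treated with drug combinations. Concentrations descend in half-log steps from near clinical Cmax, or from 10 microM if Cmax unknown.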", "data": [{"molecule": "NC(=O)C(=Cn1cnc(-c2cc(C(F)(F)F)cc(C(F)(F)F)c2)n1)c1cncnc1", "note": "+ CNC(=O)c1ccc(Nc2nc(OC3CCCC3)c3c(-c4ccc5nc(C)oc5c4)c[nH]c3n2)c(OC)c1;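 further: spheroids exposed to agents for seven days before reading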;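 on viability, T/C: 100% = DMSO vehicle control viability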", "values": [{"measurement": "IC50", "setting": "second compound 0.0316 µM", "value": 16.6, "unit": "nM"}, {"measurement": "IC50", "setting": "second compound 0.1 µM", "value": "< 9.49", "unit": "nM"}, {"measurement": "IC50", "setting": "second compound 0.316 µM", "value": "< 9.49", "unit": "nM"}, {"measurement": "IC50", "setting": "second compound 1 µM", "value": "< 9.49", "unit": "nM"}, {"measurement": "IC50", "setting": "second compound 3.16 µM", "value": "< 9.49", "unit": "nM"}, {"measurement": "IC50", "setting": "second compound 10 µM", "value": "< 9.49", "unit": "nM"}, {"measurement": "viability, T/C", "setting": "second compound 0.0316 µM, first compound 0.00949 µM", "value": 60.5, "unit": "%"}, {"measurement": "viability, T/C", "setting": "second compound 0.0316 µM, first compound 0.03 µM", "value": 38.8, "unit": "%"}, {"measurement": "viability, T/C", "setting": "second compound 0.0316 µM, first compound 0.0949 µM", "value": 22.9, "unit": "%"}, {"measurement": "viability, T/C", "setting": "second compound 0.0316 µM, first compound 0.3 µM", "value": 25.2, "unit": "%"}, {"measurement": "viability, T/C", "setting": "second compound 0.0316 µM, first compound 0.949 µM", "value": 26.6, "unit": "%"}, {"measurement": "viability, T/C", "setting": "second compound 0.0316 µM, first compound 3 µM", "value": 20.1, "unit": "%"}, {"measurement": "viability, T/C", "setting": "second compound 0.1 µM, first compound 0.00949 µM", "value": 29.9, "unit": "%"}, {"measurement": "viability, T/C", "setting": "second compound 0.1 µM, first compound 0.03 µM", "value": 28.1, "unit": "%"}, {"measurement": "viability, T/C", "setting": "second compound 0.1 µM, first compound 0.0949 µM", "value": 21, "unit": "%"}, {"measurement": "viability, T/C", "setting": "second compound 0.1 µM, first compound 0.3 µM", "value": 24.4, "unit": "%"}, {"measurement": "viability, T/C", "setting": "second compound 0.1 µM, first compound 0.949 µM", "value": 23, "unit": "%"}, {"measurement": "viability, T/C", "setting": "second compound 0.1 µM, first compound 3 µM", "value": 18.7, "unit": "%"}, {"measurement": "viability, T/C", "setting": "second compound 0.316 µM, first compound 0.00949 µM", "value": 23.2, "unit": "%"}, {"measurement": "viability, T/C", "setting": "second compound 0.316 µM, first compound 0.03 µM", "value": 18.9, "unit": "%"}, {"measurement": "viability, T/C", "setting": "second compound 0.316 µM, first compound 0.0949 µM", "value": 16.9, "unit": "%"}, {"measurement": "viability, T/C", "setting": "second compound 0.316 µM, first compound 0.3 µM", "value": 17.7, "unit": "%"}, {"measurement": "viability, T/C", "setting": "second compound 0.316 µM, first compound 0.949 µM", "value": 18.9, "unit": "%"}, {"measurement": "viability, T/C", "setting": "second compound 0.316 µM, first compound 3 µM", "value": 13.2, "unit": "%"}, {"measurement": "viability, T/C", "setting": "second compound 1 µM, first compound 0.00949 µM", "value": 18.8, "unit": "%"}, {"measurement": "viability, T/C", "setting": "second compound 1 µM, first compound 0.03 µM", "value": 12.9, "unit": "%"}, {"measurement": "viability, T/C", "setting": "second compound 1 µM, first compound 0.0949 µM", "value": 11.7, "unit": "%"}, {"measurement": "viability, T/C", "setting": "second compound 1 µM, first compound 0.3 µM", "value": 11.5, "unit": "%"}, {"measurement": "viability, T/C", "setting": "second compound 1 µM, first compound 0.949 µM", "value": 10.9, "unit": "%"}, {"measurement": "viability, T/C", "setting": "second compound 1 µM, first compound 3 µM", "value": 8.56, "unit": "%"}, {"measurement": "viability, T/C", "setting": "second compound 3.16 µM, first compound 0.00949 µM", "value": 14.1, "unit": "%"}, {"measurement": "viability, T/C", "setting": "second compound 3.16 µM, first compound 0.03 µM", "value": 12.6, "unit": "%"}, {"measurement": "viability, T/C", "setting": "second compound 3.16 µM, first compound 0.0949 µM", "value": 9.81, "unit": "%"}, {"measurement": "viability, T/C", "setting": "second compound 3.16 µM, first compound 0.3 µM", "value": 8.7, "unit": "%"}, {"measurement": "viability, T/C", "setting": "second compound 3.16 µM, first compound 0.949 µM", "value": 6.96, "unit": "%"}, {"measurement": "viability, T/C", "setting": "second compound 3.16 µM, first compound 3 µM", "value": 6.45, "unit": "%"}, {"measurement": "viability, T/C", "setting": "second compound 10 µM, first compound 0.00949 µM", "value": 14.2, "unit": "%"}, {"measurement": "viability, T/C", "setting": "second compound 10 µM, first compound 0.03 µM", "value": 12, "unit": "%"}, {"measurement": "viability, T/C", "setting": "second compound 10 µM, first compound 0.0949 µM", "value": 9.72, "unit": "%"}, {"measurement": "viability, T/C", "setting": "second compound 10 µM, first compound 0.3 µM", "value": 7.3, "unit": "%"}, {"measurement": "viability, T/C", "setting": "second compound 10 µM, first compound 0.949 µM", "value": 6.09, "unit": "%"}, {"measurement": "viability, T/C", "setting": "second compound 10 µM, first compound 3 µM", "value": 5.49, "unit": "%"}]}, {"molecule": "Nc1ccccc1NC(=O)c1ccc(CNC(=O)OCc2cccnc2)cc1", "note": "+ CNC(=O)c1ccc(Nc2nc(OC3CCCC3)c3c(-c4ccc5nc(C)oc5c4)c[nH]c3n2)c(OC)c1", "values": [{"measurement": "IC50", "setting": "second compound 0.0316 µM", "value": 4960, "unit": "nM"}, {"measurement": "IC50", "setting": "second compound 0.1 µM", "value": 3850, "unit": "nM"}, {"measurement": "IC50", "setting": "second compound 0.316 µM", "value": "< 31.6", "unit": "nM"}, {"measurement": "IC50", "setting": "second compound 1 µM", "value": "< 31.6", "unit": "nM"}, {"measurement": "IC50", "setting": "second compound 3.16 µM", "value": "< 31.6", "unit": "nM"}, {"measurement": "IC50", "setting": "second compound 10 µM", "value": "< 31.6", "unit": "nM"}, {"measurement": "viability, T/C", "setting": "second compound 0.0316 µM, first compound 0.0316 µM", "value": 109, "unit": "%"}, {"measurement": "viability, T/C", "setting": "second compound 0.0316 µM, first compound 0.1 µM", "value": 99, "unit": "%"}, {"measurement": "viability, T/C", "setting": "second compound 0.0316 µM, first compound 0.316 µM", "value": 97.3, "unit": "%"}, {"measurement": "viability, T/C", "setting": "second compound 0.0316 µM, first compound 1 µM", "value": 87.7, "unit": "%"}, {"measurement": "viability, T/C", "setting": "second compound 0.0316 µM, first compound 3.16 µM", "value": 59.2, "unit": "%"}, {"measurement": "viability, T/C", "setting": "second compound 0.0316 µM, first compound 10 µM", "value": 34, "unit": "%"}, {"measurement": "viability, T/C", "setting": "second compound 0.1 µM, first compound 0.0316 µM", "value": 50.3, "unit": "%"}, {"measurement": "viability, T/C", "setting": "second compound 0.1 µM, first compound 0.1 µM", "value": 50.2, "unit": "%"}, {"measurement": "viability, T/C", "setting": "second compound 0.1 µM, first compound 0.316 µM", "value": 57.3, "unit": "%"}, {"measurement": "viability, T/C", "setting": "second compound 0.1 µM, first compound 1 µM", "value": 62.1, "unit": "%"}, {"measurement": "viability, T/C", "setting": "second compound 0.1 µM, first compound 3.16 µM", "value": 53, "unit": "%"}, {"measurement": "viability, T/C", "setting": "second compound 0.1 µM, first compound 10 µM", "value": 32, "unit": "%"}, {"measurement": "viability, T/C", "setting": "second compound 0.316 µM, first compound 0.0316 µM", "value": 37.9, "unit": "%"}, {"measurement": "viability, T/C", "setting": "second compound 0.316 µM, first compound 0.1 µM", "value": 43, "unit": "%"}, {"measurement": "viability, T/C", "setting": "second compound 0.316 µM, first compound 0.316 µM", "value": 47.8, "unit": "%"}, {"measurement": "viability, T/C", "setting": "second compound 0.316 µM, first compound 1 µM", "value": 60.5, "unit": "%"}, {"measurement": "viability, T/C", "setting": "second compound 0.316 µM, first compound 3.16 µM", "value": 53.2, "unit": "%"}, {"measurement": "viability, T/C", "setting": "second compound 0.316 µM, first compound 10 µM", "value": 29.9, "unit": "%"}, {"measurement": "viability, T/C", "setting": "second compound 1 µM, first compound 0.0316 µM", "value": 35.8, "unit": "%"}, {"measurement": "viability, T/C", "setting": "second compound 1 µM, first compound 0.1 µM", "value": 35.9, "unit": "%"}, {"measurement": "viability, T/C", "setting": "second compound 1 µM, first compound 0.316 µM", "value": 49.5, "unit": "%"}, {"measurement": "viability, T/C", "setting": "second compound 1 µM, first compound 1 µM", "value": 46.2, "unit": "%"}, {"measurement": "viability, T/C", "setting": "second compound 1 µM, first compound 3.16 µM", "value": 38.4, "unit": "%"}, {"measurement": "viability, T/C", "setting": "second compound 1 µM, first compound 10 µM", "value": 22.3, "unit": "%"}, {"measurement": "viability, T/C", "setting": "second compound 3.16 µM, first compound 0.0316 µM", "value": 33.1, "unit": "%"}, {"measurement": "viability, T/C", "setting": "second compound 3.16 µM, first compound 0.1 µM", "value": 30.3, "unit": "%"}, {"measurement": "viability, T/C", "setting": "second compound 3.16 µM, first compound 0.316 µM", "value": 34.6, "unit": "%"}, {"measurement": "viability, T/C", "setting": "second compound 3.16 µM, first compound 1 µM", "value": 45, "unit": "%"}, {"measurement": "viability, T/C", "setting": "second compound 3.16 µM, first compound 3.16 µM", "value": 40.3, "unit": "%"}, {"measurement": "viability, T/C", "setting": "second compound 3.16 µM, first compound 10 µM", "value": 19.3, "unit": "%"}, {"measurement": "viability, T/C", "setting": "second compound 10 µM, first compound 0.0316 µM", "value": 30.4, "unit": "%"}, {"measurement": "viability, T/C", "setting": "second compound 10 µM, first compound 0.1 µM", "value": 25.9, "unit": "%"}, {"measurement": "viability, T/C", "setting": "second compound 10 µM, first compound 0.316 µM", "value": 39.4, "unit": "%"}, {"measurement": "viability, T/C", "setting": "second compound 10 µM, first compound 1 µM", "value": 38.6, "unit": "%"}, {"measurement": "viability, T/C", "setting": "second compound 10 µM, first compound 3.16 µM", "value": 37.4, "unit": "%"}, {"measurement": "viability, T/C", "setting": "second compound 10 µM, first compound 10 µM", "value": 13.3, "unit": "%"}]}]}
